One assay concerns the target T1, human recombinant Btk (Homo sapiens, UniProt Q06187).
T1 construct: purchased Invitrogen Corporation
The experiment in a line: Human Recombinant Btk Enzyme Assay (LLE_BTK). The format is biochemical. Here is the method: Human Recombinant Btk Enzyme Assay
To V-bottom 384-well plates were added test compounds, human recombinant Btk (1 nM, Invitrogen Corporation), fluoresceinated peptide (1.5 μM), ATP (20 μM), and assay buffer (20 mM HEPES pH 7.4, 10 mM MgCl2, 0.015% Brij35 and 4 mM DTT in 1.6% DMSO), with a final volume of 30 μL. After incubating at room temperature for 60 min, the reaction was terminated by adding 45 μl of 35 mM EDTA to each sample. The reaction mixture was analyzed on the Caliper LABCHIP® 3000 (Caliper, Hopkinton, Mass.) by electrophoretic separation of the fluorescent substrate and phosphorylated product. Inhibition data were calculated by comparison to no enzyme control reactions for 100% inhibition and no inhibitor controls for 0% inhibition. Dose response curves were generated to determine the concentration required inhibiting 50% of kinase activity (IC50). Compounds were dissolved at 10 mM in dimethylsulfoxide (DMSO) and evaluated at eleven concentrations.
Using this assay, the following IC50 values derived by non-linear regression analysis were determined and compared to those values of certain compounds in U.S. Publication No. 2007/078136 and U.S. Publication No. 2008/045536.

The subject of assay [1] is Ramos B cells with beta-lactamase reporter gene under control of an NFAT response element. Put plainly: NFAT-bla RA1 Reporter Assay (Ramos-NFAT). The format is cell-based, human. Conditions: Homo sapiens, Ramos, read-out: IMM Ramos-NFAT (IC50). Here is the method:
NFAT-bla RA1 Reporter Assay
Ramos B cells containing a stable integration of a beta-lactamase reporter gene under the control of an NFAT response element (NFAT-bla RA1, Invitrogen, K1434) at a density of 100×10^3 cells/well were incubated with test compounds at 37° C. for 30 min prior to stimulation with F(ab′)2 anti-human IgM (Jackson ImmunoResearch, 109-006-129) at 2.5 μg/ml for 4.5 hrs at 37° C. After stimulation, LiveBLAzer-FRET B/G substrate (CCF2/AM, or CCF4/AM, Invitrogen) was added to each well and incubated for 90 min at room temperature in the dark. Assay plates were read on an LJL Analyst, with raw emission values subtracted from a media-only blank containing substrate in assay media (no cells). The ratios of 460 nm/530 nm emission (405 nm excitation) were used to calculate the amount of stimulation.
A general note: In a reporter assay the amount or activity of a reporter protein is the signal.

Each structure is given as a SMILES string.

What is called IC50 is the point on the concentration scale where inhibition reaches its midpoint.

T1 sequence (Q06187 whole entry): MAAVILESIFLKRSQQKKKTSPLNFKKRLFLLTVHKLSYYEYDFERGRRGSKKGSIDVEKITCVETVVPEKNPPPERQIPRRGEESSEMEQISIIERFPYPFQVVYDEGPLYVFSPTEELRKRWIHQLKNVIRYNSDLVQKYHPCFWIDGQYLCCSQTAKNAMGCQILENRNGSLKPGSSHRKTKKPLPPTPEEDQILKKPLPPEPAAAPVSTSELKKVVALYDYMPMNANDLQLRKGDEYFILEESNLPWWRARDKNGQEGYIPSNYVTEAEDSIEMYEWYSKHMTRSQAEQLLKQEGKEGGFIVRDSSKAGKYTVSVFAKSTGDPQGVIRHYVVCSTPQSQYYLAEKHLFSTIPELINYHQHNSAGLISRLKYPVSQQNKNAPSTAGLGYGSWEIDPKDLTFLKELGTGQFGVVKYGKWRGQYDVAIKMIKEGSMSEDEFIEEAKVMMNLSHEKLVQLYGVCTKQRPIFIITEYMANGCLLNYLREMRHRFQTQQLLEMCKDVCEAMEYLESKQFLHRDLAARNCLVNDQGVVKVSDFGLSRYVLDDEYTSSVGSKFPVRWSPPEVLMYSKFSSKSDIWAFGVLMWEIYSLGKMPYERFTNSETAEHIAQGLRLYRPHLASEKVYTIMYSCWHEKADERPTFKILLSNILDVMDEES

On to `CN1CCC(O)(c2ccc(Nc3nc(N4CCC[C@@H](N5CCCC5=O)C4)c(F)cc3C(N)=O)cc2)C(C)(C)C1` (stereo partly shown) [Example 568], for which the values for the IC50 (on human recombinant Btk; in assay [1]) were 1 nM and 120 nM, respectively.

With `CS(=O)(=O)c1ccc(Nc2nc(N3CCCC4(CC(c5ccccc5)=NO4)C3)ccc2C(N)=O)cc1` (stereo not shown) [Example 29, 2-((4-(Methylsulfonyl)phenyl)amino)-6-(3-phenyl-1-oxa-2,7-diazaspiro[4.5]dec-2-en-7-yl)nicotinamide], the figures for the IC50 (at human recombinant Btk; in assay [1]) were 1 nM and 160 nM, respectively.

As for `CN1CCN(c2ccc(Nc3nc(N4CCC[C@@H](NC(=O)c5ccc(F)c(F)c5)C4)c(F)cc3C(N)=O)cc2)CC1` [Example 413], the IC50 was determined as 1 nM on human recombinant Btk and 240 nM in assay [1].

As to `CC(C)(C)OC(=O)N1CCCC(c2ccc(Nc3nc(N4CCCCC4)c(F)cc3C(N)=O)cc2)C1` (stereo not shown) [Example 523], the figures for the IC50 (at human recombinant Btk; in assay [1]) were 3700 nM and 10000 nM, respectively.

On to `NC(=O)c1ccc(-c2cccc3c2CCNC3)nc1Nc1ccc(-c2cnco2)cc1` [Example 345], for which the IC50 on human recombinant Btk came out at 900 nM; in assay [1], 920 nM.

`CN(C)CCc1ccc(Nc2nc(N3CCCC(F)(F)C3)c(F)cc2C(N)=O)cc1` [Example 475]: the IC50 at human recombinant Btk is 20 nM; in assay [1] it was 100 nM.

With `NC(=O)c1cc(F)c(N2CCC[C@@H](NC(=O)Nc3nccs3)C2)nc1Nc1ccc(C2CCOCC2)cc1` [Example 555], the IC50 at human recombinant Btk was determined as 3 nM; in assay [1], 190 nM.

On to `CCN1CCN(c2ccc(Nc3nc(N4CCC[C@@H](NC(=O)c5ccccc5)C4)ccc3C(N)=O)cc2)CC1` [Example 354], for which the IC50 came out at 4 nM on human recombinant Btk and 100 nM in assay [1].

In the case of `CC(C)N1CCN(c2ccc(Nc3nc(N4CCC[C@@H](NC(=O)c5ccccc5)C4)ccc3C(N)=O)cc2)CC1` [Example 357], the IC50 is 4 nM at human recombinant Btk and 100 nM in assay [1].

Turning to `CN1CCN(c2ccc(Nc3nc(N4CCC[C@@H](NC(=O)c5ccc(F)cc5)C4)c(F)cc3C(N)=O)cc2)CC1` [Example 412], the IC50 turned out to be 1 nM at human recombinant Btk and 180 nM in assay [1].

In the case of `CN1CCCC(c2ccc(Nc3nc(N4CCC[C@@H](NC(=O)Nc5nccs5)C4)c(F)cc3C(N)=O)cc2)C1` (stereo partly shown) [Example 557], the values for the IC50 (on human recombinant Btk; in assay [1]) were 2 nM and 60 nM, respectively.

For the compound `CN1CCCC(c2ccc(Nc3nc(N4CCC[C@@H](NC(=O)Nc5nnc(C6CC6)s5)C4)c(F)cc3C(N)=O)cc2)C1` (stereo partly shown) [Example 560], the IC50 on human recombinant Btk came to 0.8 nM; in assay [1] it was 180 nM.

On to `CC(C)(C)OC(=O)N1CCC(O)(c2ccc(Nc3nc(N4CCCCC4)c(F)cc3C(N)=O)cc2)C(C)(C)C1` (stereo not shown) [Example 524], for which the IC50 was found to be 1600 nM at human recombinant Btk and 5700 nM in assay [1].

On to `CC(=O)N[C@@H]1CCCN(c2nc(Nc3ccc(N4CCN(C)CC4)cc3)c(C(N)=O)cc2F)C1` [Example 386], for which the IC50 on human recombinant Btk came out at 10 nM; in assay [1], 110 nM.

For the compound `NC(=O)c1cc(F)c(N2CCC[C@@H](NC(=O)Nc3nccs3)C2)nc1Nc1ccc(N2CCOCC2)c(F)c1` [Example 451], the IC50 at human recombinant Btk came to 0.8 nM; in assay [1], 80 nM.

For the compound `Cc1csc(NC(=O)N[C@@H]2CCCN(c3ccc(C(N)=O)c(Nc4ccc(N5CCN(C)CC5)cc4)n3)C2)n1` [Example 12, (R)-2-(4-(4-Methylpiperazin-1-yl)phenylamino)-6-(3-(3-(4-methylthiazol-2-yl)ureido)piperidin-1-yl)nicotinamide], the IC50 was 7 nM on human recombinant Btk and 40 nM in assay [1].

Take `CS(=O)(=O)c1ccc(Nc2nc(N3CCC[C@@H](NC(=O)c4ccccc4)C3)c(F)cc2C(N)=O)cc1` [Example 506]: the IC50 at human recombinant Btk is 2 nM; in assay [1], 150 nM.

On to `CN1CCN(c2ccc(Nc3nc(N4CCC[C@@H](N5CCCC5=O)C4)c(F)cc3C(N)=O)cc2F)CC1` [Example 482], for which the IC50 on human recombinant Btk turned out to be 2 nM; in assay [1], 170 nM.

Take `CN1CCN(c2ccc(Nc3nc(N4CCC[C@@H](NC(=O)c5ccc(N(C)C)cc5)C4)c(F)cc3C(N)=O)cc2)CC1` [Example 414]: the figures for the IC50 (at human recombinant Btk; in assay [1]) were 2 nM and 230 nM, respectively.

For `CN1CCCC(c2ccc(Nc3nc(N4CCC[C@@H](NC(=O)Nc5ncc(F)s5)C4)c(F)cc3C(N)=O)cc2)C1` (stereo partly shown) [Example 564], the IC50 on human recombinant Btk is 1 nM; in assay [1] it was 100 nM.

In the case of `CN1CCC(C)(c2ccc(Nc3nc(N4CCCC5(CC(c6ccccc6)=NO5)C4)c(F)cc3C(N)=O)cc2)CC1` (stereo not shown) [Example 571], the IC50 at human recombinant Btk was found to be 2 nM; in assay [1], 150 nM.

Turning to `NC(=O)c1cc(F)c(N2CCC[C@@H](NC(=O)Nc3nccs3)C2)nc1Nc1ccc(CCN2CCCC2)cc1` [Example 549], the half-inhibitory concentration (IC50) at human recombinant Btk was 0.7 nM; in assay [1] it was 30 nM.

As for `CC(=O)N1CCN(c2ccc(Nc3nc(N4CCC[C@@H](NC(=O)Nc5ccc(C)c(C)c5)C4)ccc3C(N)=O)cc2)CC1` [Example 361], the values for the IC50 (at human recombinant Btk; in assay [1]) were 9 nM and 100 nM, respectively.

`NC(=O)c1cc(F)c(N2CCC[C@@H](NC(=O)c3ccc(F)c(Cl)c3)C2)nc1Nc1ccc(F)cc1` [Example 456]: the IC50 was found to be 4300 nM at human recombinant Btk and 10000 nM in assay [1].

As to `CN1CCC(C)(c2ccc(Nc3nc(N4CCC[C@@H](NC(=O)Nc5nccs5)C4)c(F)cc3C(N)=O)cc2)CC1` [Example 554], the IC50 at human recombinant Btk was 0.7 nM; in assay [1], 40 nM.

As to `COc1ccc([C@H](C)N[C@@H]2C=C(c3nc(Nc4ccc(N5CCOCC5)cc4)c(C(N)=O)cc3F)CCC2)cc1` [Example 437], the IC50 on human recombinant Btk is 740 nM; in assay [1], 2900 nM.

Turning to `CN1CCC(c2ccc(Nc3nc(N4CCC[C@@H](NC(=O)Nc5nccs5)C4)c(F)cc3C(N)=O)cc2)CC1` [Example 492], the IC50 came out at 1 nM at human recombinant Btk and 20 nM in assay [1].

With `CN1CCC(c2ccc(Nc3nc(N4CCCCC4)c(F)cc3C(N)=O)cc2)CC1` [Example 489], the IC50 is 10 nM at human recombinant Btk and 100 nM in assay [1].

`CN1CCN(C(=O)c2ccc(Nc3nc(N4CCC[C@@H](NC(=O)Nc5nccs5)C4)c(F)cc3C(N)=O)cc2)CC1` [Example 544]: the 50% inhibitory concentration (IC50) stood at 0.9 nM on human recombinant Btk and 560 nM in assay [1].

With `CN1CCN(c2ccc(Nc3nc(N4CCC[C@@H](NC(=O)Nc5nccs5)C4)c(F)cc3C(N)=O)cc2)CC1` [Example 385], the IC50 on human recombinant Btk stood at 3 nM; in assay [1], 20 nM.

On to `NC(=O)c1cc(F)c(N2CCC[C@@H](NC(=O)Nc3nccs3)C2)nc1Nc1ccc(N2CCOCC2)cc1` [Example 421], for which the IC50 is 2 nM at human recombinant Btk and 40 nM in assay [1].

Consider `CN1CCC(c2ccc(Nc3nc(N4CCC[C@@H](NC(=O)c5ccccc5)C4)c(F)cc3C(N)=O)cc2)CC1` [Example 490], for which the results for the IC50 (on human recombinant Btk; in assay [1]) were 3 nM and 270 nM, respectively.

Regarding `CN1CCN(c2ccc(Nc3nc(N4CCC[C@@H](NC(=O)Nc5nccs5)C4)c(F)cc3C(N)=O)cc2F)CC1` [Example 480], the IC50 at human recombinant Btk was determined as 0.2 nM; in assay [1], 40 nM.

For `CN1CCN(c2ccc(Nc3nc(N4CCC(O)CC4)c(F)cc3C(N)=O)cc2)CC1` [Example 407], the IC50 worked out at 30 nM on human recombinant Btk and 120 nM in assay [1].

Turning to `CN1CCCC(c2ccc(Nc3nc(N4CCC[C@@H](NC(=O)Nc5nnc(C(C)(C)C)s5)C4)c(F)cc3C(N)=O)cc2)C1` (stereo partly shown) [Example 561], the IC50 is 0.9 nM at human recombinant Btk and 140 nM in assay [1].

The values are drawn from patent US8586751B2, “Nicotinamide compounds useful as kinase modulators” (Bristol-Myers Squibb Company, priority 2009, dated 2013).
